Source: paper PMC5374215, “Fludarabine Inhibits KV1.3 Currents in Human B Lymphocytes” (Frontiers in Pharmacology, 2017)

Target: T1, KV1.3 (Homo sapiens, UniProt P22001)
T1 construct: gene KCNA3; human KV1.3 channel (KV1.3-pEYFP) transiently transfected in HEK-293 cells
Experiment: whole-cell patch clamp of KV1.3-transfected HEK-293 cells
Assay type: cell-based
Settings: HEK293

T1 sequence (P22001 whole entry): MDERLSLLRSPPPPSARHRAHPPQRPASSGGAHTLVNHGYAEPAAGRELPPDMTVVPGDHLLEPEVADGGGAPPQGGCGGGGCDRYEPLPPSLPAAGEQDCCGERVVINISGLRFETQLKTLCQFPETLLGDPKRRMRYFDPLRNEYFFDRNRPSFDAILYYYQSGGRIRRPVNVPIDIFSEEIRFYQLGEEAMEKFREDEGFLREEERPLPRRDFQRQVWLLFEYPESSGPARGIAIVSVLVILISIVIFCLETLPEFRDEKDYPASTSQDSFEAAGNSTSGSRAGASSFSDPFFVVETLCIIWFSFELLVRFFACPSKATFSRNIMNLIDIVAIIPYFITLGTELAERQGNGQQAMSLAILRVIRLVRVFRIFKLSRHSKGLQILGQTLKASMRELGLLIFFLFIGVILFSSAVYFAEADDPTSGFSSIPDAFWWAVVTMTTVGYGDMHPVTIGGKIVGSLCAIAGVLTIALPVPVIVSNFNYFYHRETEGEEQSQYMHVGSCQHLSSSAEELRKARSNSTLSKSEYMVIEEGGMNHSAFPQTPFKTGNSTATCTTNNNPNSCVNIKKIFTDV

## O=c1ccc2c(OCCCCOc3ccccc3)c3ccoc3cc2o1 [PAP-1, 5-(4-phenoxybutoxy)psoralen]
  inhibition at 0.2 µM: 89.5 ± 2.8%
